Data taken from patent US12077503B2, “Substituted cyclic amides and their use as herbicides” (FMC CORPORATION, priority 2015, dated 2024).

What was measured:
Assay type in all cases: in vivo
[1] = tested on: ivy-leaved morning glory (Ipomoea hederacea); test: Test G Pre-Emergence Protocol; conditions: Ipomoea, pre-emergence, 312 h, evaluated after 13 days; for pest or weed control at 15.625 g/ha: 15.625 g ai/ha; for pest or weed control at 15.625 g/ha / pest or weed control at 250 g/ha: read-out: Morningglory, Ivy-leaved damage rating (100=total damage to plant; 0=no damage to plant); for pest or weed control at 62.5 g/ha: 62.5 g ai/ha, 100=total damage to plant, 0=no damage to plant, read-out: Morningglory, Ivy-leaved damage rating; for pest or weed control at 250 g/ha: 250 g ai/ha
Outline: (§1)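 Glasshouse pre-emergence test: soil-sown seeds, sprayed after 1 d at 15.625, 62.5 or 250 g/ha. Conditions 24/16° C day/night, 14 h light, 65% humidity, watering twice daily. Rating 13 d post-spray (100 = total damage).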

corn (Zea mays) [2] = test: Test G Pre-Emergence Protocol; conditions: Zea mays, pre-emergence, 312 h, evaluated after 13 days; for plant injury at 15.625 g/ha: 15.625 g ai/ha; for plant injury at 15.625 g/ha / plant injury at 250 g/ha: read-out: Corn damage rating (100=total damage to plant; 0=no damage to plant); for plant injury at 62.5 g/ha: 62.5 g ai/ha, 100=total damage to plant, 0=no damage to plant, read-out: Corn damage rating; for plant injury at 250 g/ha: 250 g ai/ha
Outline: as §1

[3] = tested on: barnyardgrass (Echinochloa crus-galli); test: Test G Pre-Emergence Protocol; conditions: Echinochloa crus-galli, pre-emergence, 312 h, evaluated after 13 days; for pest or weed control at 15.625 g/ha: 15.625 g ai/ha; for pest or weed control at 15.625 g/ha / pest or weed control at 250 g/ha: read-out: Barnyardgrass damage rating (100=total damage to plant; 0=no damage to plant); for pest or weed control at 62.5 g/ha: 62.5 g ai/ha, 100=total damage to plant, 0=no damage to plant, read-out: Barnyardgrass damage rating; for pest or weed control at 250 g/ha: 250 g ai/ha
Outline: as §1

[4] = tested on: giant foxtail (Setaria faberi); test: Test G Pre-Emergence Protocol; conditions: Setaria faberi, pre-emergence, 312 h, evaluated after 13 days; for pest or weed control at 15.625 g/ha: 15.625 g ai/ha; for pest or weed control at 15.625 g/ha / pest or weed control at 250 g/ha: read-out: Foxtail, Giant damage rating (100=total damage to plant; 0=no damage to plant); for pest or weed control at 62.5 g/ha: 62.5 g ai/ha, 100=total damage to plant, 0=no damage to plant, read-out: Foxtail, Giant damage rating; for pest or weed control at 250 g/ha: 250 g ai/ha
Outline: as §1

[5] = tested on: redroot pigweed (Amaranthus retroflexus); test: Test G Pre-Emergence Protocol; conditions: Amaranthus retroflexus, pre-emergence, 312 h, evaluated after 13 days; for pest or weed control at 15.625 g/ha: 15.625 g ai/ha; for pest or weed control at 15.625 g/ha / pest or weed control at 250 g/ha: read-out: Pigweed, Redroot damage rating (100=total damage to plant; 0=no damage to plant); for pest or weed control at 62.5 g/ha: 62.5 g ai/ha, 100=total damage to plant, 0=no damage to plant, read-out: Pigweed, Redroot damage rating; for pest or weed control at 250 g/ha: 250 g ai/ha
Outline: as §1

[6] = tested on: velvetleaf (Abutilon theophrasti); test: Test G Pre-Emergence Protocol; conditions: Abutilon theophrasti, pre-emergence, 312 h, evaluated after 13 days; for pest or weed control at 15.625 g/ha: 15.625 g ai/ha; for pest or weed control at 15.625 g/ha / pest or weed control at 250 g/ha: read-out: Velvetleaf damage rating (100=total damage to plant; 0=no damage to plant); for pest or weed control at 62.5 g/ha: 62.5 g ai/ha, 100=total damage to plant, 0=no damage to plant, read-out: Velvetleaf damage rating; for pest or weed control at 250 g/ha: 250 g ai/ha
Outline: as §1

[7] = tested on: ivy-leaved morning glory (Ipomoea hederacea); test: Test G Post-Emergence Protocol; conditions: Ipomoea, post-emergence, 312 h, read-out: Morningglory, Ivy-leaved damage rating; for pest or weed control at 15.625 g/ha: 15.625 g ai/ha, evaluated after 13 days (100=total damage to plant; 0=no damage to plant); for pest or weed control at 62.5 g/ha: 62.5 g ai/ha; for pest or weed control at 62.5 g/ha / pest or weed control at 250 g/ha: evaluated after 13 days, 100=total damage to plant, 0=no damage to plant; for pest or weed control at 250 g/ha: 250 g ai/ha
Outline: (§2)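 Eight days post-sowing, plants received a spray of test compound (acetone/water 50:50, 0.5% Tween 20) at 15.625, 62.5 or 250 g/ha. Glasshouse regime thereafter: 24/16 °C, 14 h light, 65% humidity. Assessment after 13 days on a 0–100 damage scale.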

corn (Zea mays) [8] = test: Test G Post-Emergence Protocol; conditions: Zea mays, post-emergence, 312 h, read-out: Corn damage rating; for plant injury at 15.625 g/ha: 15.625 g ai/ha, evaluated after 13 days (100=total damage to plant; 0=no damage to plant); for plant injury at 62.5 g/ha: 62.5 g ai/ha; for plant injury at 62.5 g/ha / plant injury at 250 g/ha: evaluated after 13 days, 100=total damage to plant, 0=no damage to plant; for plant injury at 250 g/ha: 250 g ai/ha
Outline: as §2

[9] = tested on: barnyardgrass (Echinochloa crus-galli); test: Test G Post-Emergence Protocol; conditions: Echinochloa crus-galli, post-emergence, 312 h, read-out: Barnyardgrass damage rating; for pest or weed control at 15.625 g/ha: 15.625 g ai/ha, evaluated after 13 days (100=total damage to plant; 0=no damage to plant); for pest or weed control at 62.5 g/ha: 62.5 g ai/ha; for pest or weed control at 62.5 g/ha / pest or weed control at 250 g/ha: evaluated after 13 days, 100=total damage to plant, 0=no damage to plant; for pest or weed control at 250 g/ha: 250 g ai/ha
Outline: as §2

[10] = tested on: giant foxtail (Setaria faberi); test: Test G Post-Emergence Protocol; conditions: Setaria faberi, post-emergence, 312 h, read-out: Foxtail, Giant damage rating; for pest or weed control at 15.625 g/ha: 15.625 g ai/ha, evaluated after 13 days (100=total damage to plant; 0=no damage to plant); for pest or weed control at 62.5 g/ha: 62.5 g ai/ha; for pest or weed control at 62.5 g/ha / pest or weed control at 250 g/ha: evaluated after 13 days, 100=total damage to plant, 0=no damage to plant; for pest or weed control at 250 g/ha: 250 g ai/ha
Outline: as §2

[11] = tested on: redroot pigweed (Amaranthus retroflexus); test: Test G Post-Emergence Protocol; conditions: Amaranthus retroflexus, post-emergence, 312 h, read-out: Pigweed, Redroot damage rating; for pest or weed control at 15.625 g/ha: 15.625 g ai/ha, evaluated after 13 days (100=total damage to plant; 0=no damage to plant); for pest or weed control at 62.5 g/ha: 62.5 g ai/ha; for pest or weed control at 62.5 g/ha / pest or weed control at 250 g/ha: evaluated after 13 days, 100=total damage to plant, 0=no damage to plant; for pest or weed control at 250 g/ha: 250 g ai/ha
Outline: as §2

[12] = tested on: velvetleaf (Abutilon theophrasti); test: Test G Post-Emergence Protocol; conditions: Abutilon theophrasti, post-emergence, 312 h, read-out: Velvetleaf damage rating; for pest or weed control at 15.625 g/ha: 15.625 g ai/ha, evaluated after 13 days (100=total damage to plant; 0=no damage to plant); for pest or weed control at 62.5 g/ha: 62.5 g ai/ha; for pest or weed control at 62.5 g/ha / pest or weed control at 250 g/ha: evaluated after 13 days, 100=total damage to plant, 0=no damage to plant; for pest or weed control at 250 g/ha: 250 g ai/ha
Outline: as §2

Row | Compound | pest or weed control at 62.5 g/ha [1] | pest or weed control at 250 g/ha [1] | plant injury at 15.625 g/ha (corn (Zea mays) [2]) | plant injury at 62.5 g/ha (corn (Zea mays) [2]) | plant injury at 250 g/ha (corn (Zea mays) [2]) | pest or weed control at 15.625 g/ha [3] | pest or weed control at 62.5 g/ha [3] | pest or weed control at 250 g/ha [3] | pest or weed control at 15.625 g/ha [4] | pest or weed control at 62.5 g/ha [4] | pest or weed control at 250 g/ha [4] | pest or weed control at 15.625 g/ha [5] | pest or weed control at 62.5 g/ha [5] | pest or weed control at 250 g/ha [5] | pest or weed control at 15.625 g/ha [6] | pest or weed control at 62.5 g/ha [6] | pest or weed control at 250 g/ha [6] | pest or weed control at 15.625 g/ha [7] | pest or weed control at 62.5 g/ha [7] | pest or weed control at 250 g/ha [7] | also measured
1 | COc1cc(Cl)cc(C2CN(C)C(=O)C2C(=O)Nc2cccc(F)c2F)c1 (centres unmarked) [Compound 1690] | 0% | 0% | 0% | 20% | 70% | 50% | 80% | 90% | 70% | 80% | 90% | 0% | 0% | 20% | 0% | 0% | 30% | 20% | 70% | 60% | pest or weed control at 15.625 g/ha [1]: 0%; plant injury at 15.625 g/ha (corn (Zea mays) [8]): 10%; plant injury at 62.5 g/ha (corn (Zea mays) [8]): 70%; plant injury at 250 g/ha (corn (Zea mays) [8]): 80%; pest or weed control at 15.625 g/ha [9]: 70%; pest or weed control at 62.5 g/ha [9]: 80%; pest or weed control at 250 g/ha [9]: 90%; pest or weed control at 15.625 g/ha [10]: 80%; pest or weed control at 62.5 g/ha [10]: 80%; pest or weed control at 250 g/ha [10]: 90%; pest or weed control at 15.625 g/ha [11]: 0%; pest or weed control at 62.5 g/ha [11]: 20%; pest or weed control at 250 g/ha [11]: 40%; pest or weed control at 15.625 g/ha [12]: 0%; pest or weed control at 62.5 g/ha [12]: 20%; pest or weed control at 250 g/ha [12]: 40%
2 | CN1CC(c2cc(F)cc(OCC(F)(F)F)c2)C(C(=O)Nc2cccc(F)c2F)C1=O (centres unmarked) [Compound 1698] | 0% | 20% | 0% | 30% | 70% | 60% | 70% | 80% | 70% | 70% | 90% | 0% | 10% | 40% | 0% | 10% | 20% | 10% | 70% | 70% | pest or weed control at 15.625 g/ha [1]: 10%; plant injury at 15.625 g/ha (corn (Zea mays) [8]): 20%; plant injury at 62.5 g/ha (corn (Zea mays) [8]): 70%; plant injury at 250 g/ha (corn (Zea mays) [8]): 70%; pest or weed control at 15.625 g/ha [9]: 60%; pest or weed control at 62.5 g/ha [9]: 80%; pest or weed control at 250 g/ha [9]: 80%; pest or weed control at 15.625 g/ha [10]: 80%; pest or weed control at 62.5 g/ha [10]: 80%; pest or weed control at 250 g/ha [10]: 80%; pest or weed control at 15.625 g/ha [11]: 20%; pest or weed control at 62.5 g/ha [11]: 30%; pest or weed control at 250 g/ha [11]: 60%; pest or weed control at 15.625 g/ha [12]: 0%; pest or weed control at 62.5 g/ha [12]: 10%; pest or weed control at 250 g/ha [12]: 50%
3 | Cc1cc(C2CN(C)C(=O)C2C(=O)Nc2cccc(F)c2F)cc(C)c1Cl (centres unmarked) [Compound 1700] | 10% | 20% | 0% | 0% | 30% | 20% | 50% | 70% | 40% | 80% | 90% | 0% | 0% | 0% | 0% | 0% | 0% | 20% | 20% | 60% | plant injury at 15.625 g/ha (corn (Zea mays) [8]): 30%; plant injury at 62.5 g/ha (corn (Zea mays) [8]): 30%; plant injury at 250 g/ha (corn (Zea mays) [8]): 40%; pest or weed control at 15.625 g/ha [9]: 20%; pest or weed control at 62.5 g/ha [9]: 50%; pest or weed control at 250 g/ha [9]: 70%; pest or weed control at 15.625 g/ha [10]: 40%; pest or weed control at 62.5 g/ha [10]: 60%; pest or weed control at 250 g/ha [10]: 70%; pest or weed control at 15.625 g/ha [11]: 0%; pest or weed control at 62.5 g/ha [11]: 0%; pest or weed control at 250 g/ha [11]: 0%; pest or weed control at 15.625 g/ha [12]: 0%; pest or weed control at 62.5 g/ha [12]: 0%; pest or weed control at 250 g/ha [12]: 0%
